Among the data in ChEMBL document CHEMBL3864144, “Cochlearoids F-K: Phenolic meroterpenoids from the fungus Ganoderma cochlear and their renoprotective activity” (Bioorg Med Chem Lett, 2016) are Activity and inhibition values, retold here.

Calls of active or inactive are those of the source. The calls are words filed in the database; no cut-off is given here.

A short description of data set [1]: Cytotoxicity against human HKC8 cells assessed as decrease in cell viability at 20 uM after 24 hrs by MTT assay. Format: toxicity, cell-based. As to conditions: hkc8, 24 h. Background: Tetrazolium dyes change colour on reduction, which living cells bring about.
The next data set deals with HKC8. In words: Renoprotective activity in human HKC8 cells assessed as inhibition of TGF-beta1-induced fibronectin production preincubated for 1 hr followed by TGF-beta1 induction measured after 24 hrs by solid-phase sandwich ELISA. Format: functional, cell-based.
Data set [2] is described as follows: Cytotoxicity against human HKC8 cells assessed as decrease in cell viability at 10 uM after 24 hrs by MTT assay. The format is toxicity, cell-based. As to conditions: hkc8, 24 h.
Data set [3] can be described thus: Cytotoxicity against human HKC8 cells assessed as decrease in cell viability at 2.5 uM after 24 hrs by MTT assay. Format: toxicity, cell-based. As to conditions: hkc8, 24 h.
A short description of data set [4]: Cytotoxicity against human HKC8 cells assessed as decrease in cell viability at 5 uM after 24 hrs by MTT assay. Format: toxicity, cell-based. As to conditions: hkc8, 24 h.

As to `CC(C)=CCC/C(C)=C/CC/C(=C/Cc1cc(O)cc2c1oc(=O)c1c(O)ccc(O)c12)CO`, the Activity result is given as “Toxic” in data set [1] and “Non-Toxic” in data set [2]. For the same compound, the inhibition result in the data set with HKC8 was “Active”.
As for `CC(C)=CCC/C(C)=C/CC/C(=C/Cc1cc(O)cc2c1oc(=O)c1c(O)ccc(O)c12)C(=O)O`, the Activity result in data set [1] was “Toxic”; in data set [3], “Non-Toxic”. The inhibition entry in the data set on HKC8 was “Active”.
As to `CC(C)=CCC/C(=C/Cc1cc2oc(=O)c3c(O)ccc(O)c3c2cc1O)C(=O)O`, the values for the Activity result in data set [1] and in data set [4] were “Toxic” and “Non-Toxic”, respectively. Moreover, in the data set with HKC8, the inhibition entry was “Active”.
For the compound `CC(C)=CCC/C(C)=C/CC/C(=C/Cc1cc2oc(=O)c(CC/C=C(\C)CCC=C(C)C)c(C(=O)c3cc(O)ccc3O)c2cc1O)CO`, the Activity result in data set [1] was “Toxic”; in data set [4], “Non-Toxic”. In addition, in the data set with HKC8, the inhibition entry was “Active”.
As for `CC(C)=CCC/C(C)=C/CC/C(=C/Cc1cc(O)cc2c(C(=O)c3cc(O)ccc3O)c(CC/C=C(\C)CCC=C(C)C)c(=O)oc12)CO`, the Activity entry in data set [1] was “Toxic”; in data set [4], “Non-Toxic”. Moreover, the inhibition entry with HKC8 was “Active”.
Consider `CC(C)=CCC/C(C)=C/CC/C(=C/Cc1cc2oc(=O)c3c(O)ccc(O)c3c2cc1O)CO`, for which the results for the Activity entry in data set [1] and in data set [3] were “Toxic” and “Non-Toxic”, respectively.
